Measured values taken from PubChem BioAssay (NCI).
Values joined by “and” are separate entries in the source; they are usually repeats but may differ in a detail not shown here. Equal entries are not always repeated.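 Tested at 5 concentrations; 48 h exposure; 96-well plates; endpoints linearly interpolated, else capped at highest concentration. At the GI50, growth is halved. TGI denotes the concentration required for complete inhibition of growth.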

How the values were obtained:
Test in all cases: DTP human tumour cell line panel, 48 h
NCI-H522 lung = system: NCI-H522 lung
SK-MEL-28 melanoma = system: SK-MEL-28 melanoma
SK-OV-3 ovarian = system: SK-OV-3 ovarian
HT29 colon = system: HT29 colon
SK-MEL-2 melanoma = system: SK-MEL-2 melanoma
ACHN renal = system: ACHN renal
MALME-3M melanoma = system: MALME-3M melanoma
K-562 leukemia = system: K-562 leukemia
HCT-116 colon = system: HCT-116 colon
SW-620 colon = system: SW-620 colon

Structure (SMILES)	GI50 (NCI-H522 lung) [µM]	TGI (NCI-H522 lung)	GI50 (SK-MEL-28 melanoma) [µM]	TGI (SK-MEL-28 melanoma) [µM]	GI50 (SK-OV-3 ovarian) [µM]	TGI (SK-OV-3 ovarian) [µM]	GI50 (HT29 colon) [µM]	TGI (HT29 colon)	GI50 (SK-MEL-2 melanoma) [µM]	TGI (SK-MEL-2 melanoma) [µM]	GI50 (ACHN renal) [µM]	TGI (ACHN renal)	GI50 (MALME-3M melanoma) [µM]	TGI (MALME-3M melanoma)	GI50 (K-562 leukemia) [µM]	TGI (K-562 leukemia)	GI50 (HCT-116 colon) [µM]	TGI (HCT-116 colon)	GI50 (SW-620 colon) [µM]	TGI (SW-620 colon) [µM]
CC(=O)[CH-]C(C)=O.[CH2-]C.[CH2-]C.[Tl+3]	> 100	> 100 µM	> 100	> 100	> 100	> 100	> 100	> 100 µM	> 100	> 100	> 100	> 100 µM	> 100	> 100 µM	> 100	> 100 µM	> 100	> 100 µM	> 100	> 100
Cc1ncc(C(=O)Nc2ccc(CN3CCN(C)CC3)c(C(F)(F)F)c2)cc1C#Cc1cnc(NC2CC2)c2ncccc12	0.635	1.23 µM	0.641	1.18	3.39	7.66	0.474	1.31 µM	1.66	5.54	0.577	1.04 µM	0.57	1.15 µM	0.0211	0.476 µM	0.578	1.07 µM	0.714	1.33
COc1ccccc1-c1cc(=O)c2ccc(C)nc2[nH]1		> 100 µM		> 100		> 100		> 100 µM		> 100		> 100 µM		> 100 µM		> 100 µM	37.6	> 100 µM		> 100
O=C1C(SCCO)=C(SCCO)C(=O)c2ccccc21		3.56 µM		3.18		3.08		3.98 µM		4.24		2.26 µM		2.85 µM		3.87 µM		9.54 µM		1.47
C[n+]1c2ccccc2cc2c(CNC(CCCN=C(N)N)C(=O)O)cccc21 (centres undefined)	0.157	2.78 µM and 0.342 µM		3.65	6.15	17.9	0.339	1.14 µM and 5.85 µM	0.957	7.25	0.486	1.83 µM and 2.05 µM	3.48	4.54 µM and 10.7 µM	0.485	1.09 µM and 7.63 µM	0.343	1.26 µM and 1.07 µM		1.78
COCCOCCOCc1n(Cc2ccc3ccccc3n2)c2ccccc2[n+]1Cc1ccc2ccccc2c1	0.248	0.936 µM	0.484	1.88	0.501	2.68	0.292	1.43 µM	0.376	1.56	2.04	5.68 µM	0.275	0.9 µM	0.291	1.7 µM	0.402	2.06 µM	0.769	5.37
CCCCCCCCCCCCCCCCCCNC(=O)[C@H]1CSC(c2cccs2)N1 (some centres undefined)	3.59	> 50 µM	0.725	1.43	4.51	18.3	1.46	4.2 µM	0.957	1.79	30.9	> 50 µM	0.988	2.01 µM	0.761	2.14 µM	0.945	1.8 µM	0.881	1.91
O=C(O)CCC(NC(=S)S)C(=O)O.[Na+].[Zn+2] (centres undefined)	> 50	> 50 µM	> 50	> 50	> 50	> 50	> 50	> 50 µM	> 50	> 50	> 50	> 50 µM	> 50	> 50 µM	> 50	> 50 µM	> 50	> 50 µM	> 50	> 50
CCCCCCCCCCCC[n+]1ccccc1 (tested in a mixture with another compound)	0.855	5.42 µM	1.35	3.53	1.16	3.74	0.28	4.21 µM	1.76	5.52	2.25	14.1 µM	0.633	2.77 µM	0.392	11 µM	0.548	2.62 µM	1.57	10.5
Cc1cc(Nc2nc(SCc3ccc(C(=O)Nc4ccc(F)cc4N)cc3)nn3cccc23)n[nH]1	0.0488	0.565 µM	2.83	51.8	0.339	4.61	0.322	10.1 µM	0.617	6.01	1.24	13 µM	1.83	25.7 µM	0.0487	> 100 µM	0.494	20.4 µM	0.426	> 100
CC1CCCc2c1nn(C(=O)/C=C(\N)c1ccccc1)c2N (centres undefined)	13.6	61.7 µM	17.9	> 100	14.5	> 100	16.8	> 100 µM	34.8	> 100	9.94	> 100 µM	9.4	> 100 µM	4.99	> 100 µM	5.55	26.3 µM	6.71	> 100
CNC(SC)=C1C(=O)OC(C)(C)OC1=O		> 100 µM		> 100		> 100		> 100 µM		> 100		> 100 µM		> 100 µM		> 100 µM		> 100 µM		38.5
CC1=C(C(=O)Nc2ccccc2C)C(/C=C/c2ccccc2)C(C(=O)Nc2ccccc2C)=C(C)N1		> 100 µM		> 100		> 100		> 100 µM		> 100		> 100 µM		> 100 µM		> 100 µM		> 100 µM		> 100
CC(=O)[O-].CC(=O)[O-].CC(=O)[O-].CC(=O)[O-].[Mo+2].[Mo+2]	> 100	> 100 µM	> 100	> 100	> 100	> 100	> 100	> 100 µM	> 100	> 100	> 100	> 100 µM	> 100	> 100 µM	> 100	> 100 µM	> 100	> 100 µM	> 100	> 100
O=C/C(=C(/Cl)c1ccc(O)cc1)c1ccccc1		26.1 µM		41.9		85.8		> 62.7 µM		81.6		50.2 µM		70.4 µM		> 100 µM		37.2 µM		> 68
